Data taken from paper PMC5566891, “Eukaryotic transporters for hydroxyderivatives of benzoic acid” (Scientific Reports, 2017).

Molecular target: T1, Hbt2 (Hbt2p) (Lodderomyces parapsilosis, UniProt G8BG57)
T1 construct: native untagged full-length transporter in wild-type cells; assigned by knockout of HBT2
Experiment: […]-substrate uptake, wild-type versus hbt2 knockout cells
Assay type: cell-based
Settings: 50 µM, 50 mM Tris-HCl pH 7.5, 28 °C, labelled compound

T1 sequence (G8BG57 entry or part of it): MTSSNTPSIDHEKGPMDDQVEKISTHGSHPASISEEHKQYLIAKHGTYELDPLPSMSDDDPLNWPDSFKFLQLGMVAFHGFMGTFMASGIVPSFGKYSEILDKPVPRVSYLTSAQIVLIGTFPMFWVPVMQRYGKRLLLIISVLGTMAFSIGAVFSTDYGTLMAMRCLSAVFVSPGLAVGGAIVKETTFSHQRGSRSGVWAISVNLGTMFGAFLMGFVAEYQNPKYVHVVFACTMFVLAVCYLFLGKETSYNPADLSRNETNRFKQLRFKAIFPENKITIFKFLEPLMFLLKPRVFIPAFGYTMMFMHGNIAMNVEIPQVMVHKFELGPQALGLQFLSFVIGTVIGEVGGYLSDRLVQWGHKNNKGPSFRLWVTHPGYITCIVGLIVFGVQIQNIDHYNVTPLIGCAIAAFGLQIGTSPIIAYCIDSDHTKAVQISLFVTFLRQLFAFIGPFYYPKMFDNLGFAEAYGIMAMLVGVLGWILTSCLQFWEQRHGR

Compound	14C-substrate uptake, wild-type versus hbt2 knockout cells (cells grown on hydroquinone)	14C-substrate uptake, wild-type versus hbt2 knockout cells (cells grown on 4-hydroxybenzoate or hydroquinone)
O=C(O)c1ccc(O)c(O)c1 [protocatechuate]	uptake of both substrates is impaired in the ∆hbt2/∆hbt2 mutant	–
O=C(O)c1ccc(O)cc1 [4-hydroxybenzoate]	–	uptake of both substrates is impaired in the ∆hbt2/∆hbt2 mutant
